Results published in patent US11273172B2, “Synergistic combination of oligonucleotides and chemotherapeutic for treating cancer” (THE BOARD OF TRUSTEES OF THE UNIVERSITY OF ILLINOIS, priority 2017, dated 2022).
Where “and” joins values, the source holds several entries; their conditions need not be identical. Equal entries are not always repeated.

Assays:
Test in all cases: MTT cell death assay, chemotherapeutic with and without MADD siRNA knockdown
Type in all cases: cell-based
[1] = tested on: CFPAC-1 pancreatic cancer cells; details: siRNA 10 nM, 72 hours post TRAIL treatment
Method: (§1) Cells are cultured and maintained at 37° C. in a humidified atmosphere containing 5% CO2 as described above. On Day 0, Cells are seeded in […] tissue culture dishes (Corning; Cat Number: 353003) to attain 60-70% confluence. In parallel, cells are also seeded in one 96-well plate (Corning; Cat number: 353072) for analysis of survival before reseeding. After 12-18 hours (Day 1), cells are transfected with Scramble or MADD siRNA at 10 nM concentration. The sequences of siRNAs (double stranded) used are:
(§2) On Day 4, when cells are properly adhered and retained their shape in 96-well plates, drugs are added. All drugs are diluted in complete media on the same day prior to the addition to the cells. In untreated cells, media is replaced with complete media. Two hundred μl volume of media (with or without drugs) is used for the drug treatment assay. Plates are incubated 24 h, 48 h and 72 hours at 37° C. in humidified CO2 incubator.
(§3) An MTT assay is performed to determine relative survival after drug treatment as described above. MTT (3-[4,5-Dimethylthiazol-2-yl]-2,5-diphenyltetrazolium bromide; Thiazolyl blue) is purchased from Sigma Aldrich (Cat number: M5655). MTT is dissolved in sterile DPBS at the concentration of 5 mg/ml and filtered through 0.45 μM syringe filter (Corning; Cat number: 431220). Ten μl of MTT solution is added per well of 96-well plate. Plates are incubated for 2 hours at 37° C. in the humidified CO2 incubator. After 2 hours, media is aspirated using vacuum inside the biosafety hood. Purple colored crystals formed in viable cells are dissolved by adding 100 μl of Dimethyl sulfoxide (Thermo Fisher Scientific; Cat number D128-500) Plates are kept on shaker for 10 minutes for compete dissolution of crystals and absorbance is recorded at 595 nm using Bio-Rad iMark microplate reader. Data is analyzed in MICROSOFT EXCEL® software. Relative survival is calculated with respect to absorbance of control (untreated cells) to determine the effect of transfection as well as combination treatment.
(§4) Each data set takes into account any spontaneous cell death which is observed upon transfection with Scramble siRNA; the amount of spontaneous cell death from Scramble siRNA transfection (baseline) is subtracted from the amount of cell death observed in each siRNA transfection reaction to yield a Net Percent (Net %) cell death after accounting for Scrambled siRNA-induced cell death.

[2] = tested on: HCT116 colon cancer cells; details: TRAIL 50 ng/ml, siRNA 10 nM, 48 hours post TRAIL treatment
Method: as §1, §2, §3, §4

[3] = tested on: SKOV3 ovarian cancer cells; details: TRAIL 50 ng/ml, siRNA 10 nM, 48 hours post TRAIL treatment
Method: as §1, §2, §3, §4

[4] = tested on: PLC/PRF/5 hepatic cancer cells; details: siRNA 10 nM
Method: (§5) Cells are cultured and maintained at 37° C. in a humidified atmosphere containing 5% CO2 as described above. […] After 12-18 hours (Day 1), cells are transfected with Scramble or MADD siRNA at 10 nM concentration. The sequences of siRNAs (double-stranded) used are:
(§6) On Day 4, when cells are properly adhered and retained their shape in 96-well plates, drugs are added. All drugs are diluted in complete media on the same day prior to the addition to the cells. In untreated cells, media is replaced with complete media. Two hundred μl volume of media (with or without drugs) is used for the drug treatment assay. Plates are incubated 24 hours, 48 hours and 72 hours at 37° C. in humidified CO2 incubator.
as §3, with “MTT is dissolved in sterile DPBS at the concentration of 5 mg/ml and filtered through 0.45 μM syringe filter (Corning; Cat number: 431220).” left out
as §4
(§7) Cells are cultured and maintained at 37° C. in a humidified atmosphere containing 5% CO2 as described above. […] After 12-18 hours (Day 1), cells are transfected with Scramble or MADD siRNA at 10 nM concentration. The sequences of siRNAs (double stranded) used are:
as §3, with “MTT is dissolved in sterile DPBS at the concentration of 5 mg/ml and filtered through 0.45 μM syringe filter (Corning; Cat number: 431220).” left out, “D128-500).” for “D128-500)”
as §2

[5] = tested on: AGS gastric adenocarcinoma cells; details: siRNA 10 nM
Method: as §5, §6
as §3, with “MTT is dissolved in sterile DPBS at the concentration of 5 mg/ml and filtered through 0.45 μM syringe filter (Corning; Cat number: 431220).” left out
as §4, §7
as §3, with “MTT is dissolved in sterile DPBS at the concentration of 5 mg/ml and filtered through 0.45 μM syringe filter (Corning; Cat number: 431220).” left out, “D128-500).” for “D128-500)”
as §2

[6] = Cisplatin 1.875 μM, 24 hours post Cisplatin treatment
[7] = Gemcitabine 0.03125 μM, 24 hours post Gemcitabine treatment
[8] = Sorafinib 0.375 μM, 24 hours post Sorafinib treatment
[9] = TRAIL 50 ng/ml, 24 hours post TRAIL treatment
[10] = 5-flurouracil 25 μM, 72 hours post 5-flurouracil treatment
[11] = Gemcitabine 1 μM, 48 hours post Gemcitabine treatment
[12] = Sorafinib 0.625 μM, 48 hours post Sorafinib treatment
[13] = TRAIL 6.25 ng/ml, 72 hours post TRAIL treatment

MADD siRNA: siRNA targeting exon 13L of the MADD splice variant of the IG20 gene; SEQ ID NO: 4, 5′-GAUUGUCAUAGAUUCGCCGTT-3′ (chemistry not given here)
Net % cell death after accounting for Scrambled siRNA ([1]; TRAIL 6.25 ng/ml): 53% and 53 − 0 = 53%
Observed % Cell death ([1]; TRAIL 6.25 ng/ml): 53%
Net % cell death after accounting for Scrambled siRNA ([1]; TRAIL 12.5 ng/ml): 53% and 53 − 0 = 53%
Observed % Cell death ([1]; TRAIL 12.5 ng/ml): 53%
Observed % Cell death [2]: 43%
Net % cell death after accounting for Scrambled siRNA [3]: 29% and 38 − 9 = 29%
Observed % Cell death [3]: 38%
Net % cell death after accounting for Scrambled siRNA [4, 6]: 20% and 25 − 5 = 20%
Observed % Cell death [4, 6]: 25%
Net % cell death after accounting for Scrambled siRNA [4, 7]: 20% and 25 − 5 = 20%
Observed % Cell death [4, 7]: 25%
Net % cell death after accounting for Scrambled siRNA [4, 8]: 20% and 25 − 5 = 20%
Observed % Cell death [4, 8]: 25%
Net % cell death after accounting for Scrambled siRNA [4, 9]: 20% and 25 − 5 = 20%
Observed % Cell death [4, 9]: 25%
Observed % Cell death [5, 10]: 20%
Net % cell death after accounting for Scrambled siRNA [5, 11]: 5% and 14 − 9 = 5%
Observed % Cell death [5, 11]: 14%
Net % cell death after accounting for Scrambled siRNA [5, 12]: 5% and 14 − 9 = 5%
Observed % Cell death [5, 12]: 14%
Observed % Cell death [5, 13]: 20%

Scrambled siRNA: non-specific Scramble siRNA, negative control; SEQ ID NO: 5, 5′-UUGCUAAGCGUCGGUCAAUTT-3′ (chemistry not given here)
Net % cell death after accounting for Scrambled siRNA ([1]; TRAIL 6.25 ng/ml): 17 − 17 = 0%
Observed % Cell death ([1]; TRAIL 6.25 ng/ml): 0%
Net % cell death after accounting for Scrambled siRNA ([1]; TRAIL 12.5 ng/ml): 0 − 0 = 0%
Observed % Cell death ([1]; TRAIL 12.5 ng/ml): 0%
Net % cell death after accounting for Scrambled siRNA [2]: 27 − 27 = 0%
Observed % Cell death [2]: 27%
Net % cell death after accounting for Scrambled siRNA [3]: 9 − 9 = 0%
Observed % Cell death [3]: 9%
Net % cell death after accounting for Scrambled siRNA [4, 6]: 5 − 5 = 0%
Observed % Cell death [4, 6]: 5%
Net % cell death after accounting for Scrambled siRNA [4, 7]: 5 − 5 = 0%
Observed % Cell death [4, 7]: 5%
Net % cell death after accounting for Scrambled siRNA [4, 8]: 5 − 5 = 0%
Observed % Cell death [4, 8]: 5%
Net % cell death after accounting for Scrambled siRNA [4, 9]: 5 − 5 = 0%
Observed % Cell death [4, 9]: 5%
Net % cell death after accounting for Scrambled siRNA [5, 10]: 17 − 17 = 0%
Observed % Cell death [5, 10]: 17%
Net % cell death after accounting for Scrambled siRNA [5, 11]: 9 − 9 = 0%
Observed % Cell death [5, 11]: 9%
Net % cell death after accounting for Scrambled siRNA [5, 12]: 9 − 9 = 0%
Observed % Cell death [5, 12]: 9%
Net % cell death after accounting for Scrambled siRNA [5, 13]: 17 − 17 = 0%
Observed % Cell death [5, 13]: 17%

CNC(=O)c1cc(Oc2ccc(NC(=O)Nc3ccc(Cl)c(C(F)(F)F)c3)cc2)ccn1 [Sorafinib]
Net % cell death after accounting for Scrambled siRNA [4, 8]: 13%
Observed % Cell death [4, 8]: 13%
Net % cell death after accounting for Scrambled siRNA [5, 12]: 12%
Observed % Cell death [5, 12]: 12%

B1: TRAIL: cytotoxic protein which induces apoptosis in tumor cells, but not in normal cells (protein, UniProt P50591 1-281, looked up)
Tumor necrosis factor ligand …: MAMMEVQGGPSLGQTCVLIVIFTVLLQSLCVAVTYVYFTNELKQMQDKYSKSGIACFLKEDDSYWDPNDEESMNSPCWQVKWQLRQLVRKMILRTSEETISTVQEKQQNISPLVRERGPQRVAAHITGTRGRSNTLSSPNSKNEKALGRKINSWESSRSGHSFLSNLHLRNGELVIHEKGFYYIYSQTYFRFQEEIKENTKNDKQMVQYIYKYTSYPDPILLMKSARNSCWSKDAEYGLYSIYQGGIFELKENDRIFVSVTNEHLIDMDHEASFFGAFLVG
Net % cell death after accounting for Scrambled siRNA ([1]; TRAIL 6.25 ng/ml): 30%
Observed % Cell death ([1]; TRAIL 6.25 ng/ml): 30%
Net % cell death after accounting for Scrambled siRNA ([1]; TRAIL 12.5 ng/ml): 8%
Observed % Cell death ([1]; TRAIL 12.5 ng/ml): 8%
Net % cell death after accounting for Scrambled siRNA [2]: 27%
Observed % Cell death [2]: 27%
Net % cell death after accounting for Scrambled siRNA [3]: 13%
Observed % Cell death [3]: 13%
Net % cell death after accounting for Scrambled siRNA [4, 9]: 0%
Observed % Cell death [4, 9]: 0%
Net % cell death after accounting for Scrambled siRNA [5, 13]: 7%
Observed % Cell death [5, 13]: 7%
